From patent US20080194637A1, “Small organic molecule regulators of cell proliferation” (Curis, Inc., priority 2006, published 2008)
Counter-ions that a name gives are not always drawn. Like-named read-outs stand apart in the source and are kept apart here.

Legend:
C57BL/6 male mice = assay: C57BL/6 hair growth after single topical dose; assay type: in vivo, mouse; settings: shaved lower back, dosed topically once, visually graded for melanogenesis and hair regrowth
Procedure: A mouse model of male pattern baldness is used to investigate the effectiveness of the present compounds for growing hair. Agonists for the sonic hedgehog pathway that act by binding and activating Smoothened were tested in a formulation of 50:30:20 PG:EtOH:water or 5:95 DMSO:acetone vehicle. C57BL/6 male mice (48-52 days old on arrival) from Charles River Labs were used on the study. The mice were housed and cared for according to established procedures. Food and water were ad libitum. On Day 0, the mice were shaved on their lower back, an area of ˜1.5 inches×˜2 inches with Wahl clippers using a surgical blade. On day −3, the mice were anesthetized with isoflurane, their back was rinsed with a pad of 70% ethanol, a placebo pellet or a DHT pellet (2.5 mg 21 day pellet) were implanted subcutaneously between the shoulder blades with a 10 gauge trochar. DHT pellet transplantation results in maintenance of existing hair follicles in the resting (telogen) phase. The hole was stapled with a sterile autoclip and the mice were returned to their cage after awaking. The mice were dosed topically once and visually graded daily, except weekends, for melanogenesis and hair regrowth of fur in the dosed area (Table 4).

[1] = test system: sonic hedgehog pathway, Daoy human medulloblastoma cells; assay: Human hedgehog reporter assay Daoy-GliLuc (DGL); assay type: cell-based; settings: gli-luciferase reporter, read-out: Daoy Avg. EC50
From the text: (§1) Mouse (TM3: mouse Leydig cells; S12: mouse embryonic mesenchymal cells) and human (Daoy: human medulloblastoma cell; HepM: human embryonic palatal mesenchymal cell) cell lines are used to screen small molecules for their ability to modulate the activity of the sonic hedgehog pathway (Table 1, Table 2, and Table 3). Stable hedgehog pathway reporter cell lines are established by specific antibiotic selection following transfection of a reporter plasmid containing a luciferase gene located directly downstream from the gli promoter. Consequently, any observable changes in cellular luciferase activity may be attributed to changes in sonic hedgehog pathway activity in mouse and human cells, respectively, since gli is the major by-product of this pathway. To calculate activity, we generate an eleven point dose curve for each compound using 1:3 dilutions in 96 well assay plates. Each plate tested also contains low and high control to establish maximal pathway activation so to establish/compare a percentage activation of each tested compound (AMAX) on respective plates. Also we calculate EC50 values, or a concentration where the pathway will be exactly 50% activated, for each tested compound to determine potency. In these cell lines, compounds that register >20% AMAX values are considered active.
(§2) Stable hedgehog pathway reporter cell lines are established following specific antibiotic selection following transfection of a reporter plasmid In short, typically cells are plated in MicroTiter-plates at 10,000-20,000 cells per well, in growth media (containing 10%-20% FBS). After 48-72 hrs (HGL and DGL respectively) the media in the assay plates is switched to low-serum containing media (0.5% FBS). At that time compounds are added (at 1-5 μM) to the assay plates, in the presence or absence of hedgehog protein (octyl-modified version; 1-5 ng/ml). After another 24 hrs of incubation, the media from the assay plates is discarded and replaced with luciferase assay-mix. Subsequently, plates are incubated at RT for ˜15-30 mins and then read in a luminometer. [note: addition of the Hedgehog protein, although not critical, will sensitize the assay allowing the identification of weak actives].

[2] = test system: sonic hedgehog pathway, HepM human embryonic palatal mesenchymal cells; assay: Human hedgehog reporter assay HEPM-GliLuc (HGL); assay type: cell-based; settings: gli-luciferase reporter
From the text: as §1, §2

[3] = test system: sonic hedgehog pathway, TM3 mouse Leydig cells; assay: Hedgehog pathway Gli-luciferase reporter assay in TM3 cells; assay type: cell-based
From the text: as §1, §2

[4] = Daoy human medulloblastoma cells, Table 1
[5] = HepM human embryonic palatal mesenchymal cells, Table 1

| SMILES | EC50 [1, 4] | EC50 ([3]; Table 1) | EC50 [2, 5] | also measured |
| --- | --- | --- | --- | --- |
| CCOc1ccc(-c2ccc(C)nc2)cc1CN(C(=O)c1sc2ccccc2c1Cl)[C@H]1CC[C@H](NC)CC1 |  |  |  | C57BL/6 Hair Growth (C57BL/6 male mice): yes |
| CCOc1ccc(-c2ccc(C(F)(F)F)cc2)cc1CN(C(=O)c1sc2ccccc2c1Cl)[C@H]1CC[C@@H](NC)CC1 [Compound 309, 3-Chloro-benzo[b]thiophene-2-carboxylic acid (4-ethoxy-4′-trifluoromethyl-biphenyl-3-ylmethyl)-(4-methylamino-cyclohexyl)-amide hydrochloride] | < 0.05 µM | 0.05 to 0.25 µM |  |  |
| CN[C@H]1CC[C@@H](N(Cc2cc(-c3ccc(C)nc3)ccc2OC)C(=O)c2sc3ccccc3c2Cl)CC1 [Compound 320, 3-Chloro-benzo[b]thiophene-2-carboxylic acid [2-methoxy-5-(6-methyl-pyridin-3-yl)-benzyl]-(4-methylamino-cyclohexyl)-amide dihydrochloride] |  | < 0.05 µM | < 0.05 µM |  |
| CN[C@H]1CC[C@@H](N(Cc2cc(-c3cnc(N(C)C)nc3)ccc2OC)C(=O)c2sc3ccccc3c2Cl)CC1 [Compound 321, 3-Chloro-benzo[b]thiophene-2-carboxylic acid [5-(2-dimethylamino-pyrimidin-5-yl)-2-methoxy-benzyl]-(4-methylamino-cyclohexyl)-amide dihydrochloride] | 0.05 to 0.25 µM | 1 to 2.5 µM |  |  |
| CN[C@H]1CC[C@@H](N(Cc2cc(-c3cccc(C(C)=O)c3)ccc2OC)C(=O)c2sc3c(F)ccc(F)c3c2Cl)CC1 [Compound 364, 3-Chloro-4,7-difluoro-benzo[b]thiophene-2-carboxylic acid (3′-acetyl-4-methoxy-biphenyl-3-ylmethyl)-(4-methylamino-cyclohexyl)-amide hydrochloride] |  | < 0.05 µM | < 0.05 µM |  |
| CN[C@H]1CC[C@@H](N(Cc2cc(-c3ccc(C#N)cc3)ccc2OC)C(=O)c2sc3cccc(F)c3c2Cl)CC1 [Compound 366, 3-Chloro-4-fluoro-benzo[b]thiophene-2-carboxylic acid (4′-cyano-4-methoxy-biphenyl-3-ylmethyl)-(4-methylamino-cyclohexyl)-amide hydrochloride] | < 0.05 µM | < 0.05 µM |  |  |
| CN[C@H]1CC[C@H](N(Cc2cc(-c3ccc(N)nc3C)ccc2OC)C(=O)c2sc3ccccc3c2Cl)CC1 [Compound 398, 3-Chloro-benzo[b]thiophene-2-carboxylic acid [5-(6-amino-2-methyl-pyridin-3-yl)-2-methoxy-benzyl]-(4-methylamino-cyclohexyl)-amide dihydrochloride] |  |  |  | EC50 ([1]; Daoy human cells, Table 3): 0.25 to 1 µM; EC50 ([2]; HepM human cells, Table 3): 1 to 2.5 µM; EC50 ([3]; Table 3): 1 to 2.5 µM |
| CN[C@H]1CC[C@H](N(Cc2cc(-c3ccc(C(O)C(F)(F)F)cc3)ccc2F)C(=O)c2sc3ccccc3c2Cl)CC1 (stereo partly shown) [Compound 433, 3-Chloro-benzo[b]thiophene-2-carboxylic acid [4-fluoro-4′-(2,2,2-trifluoro-1-hydroxy-ethyl)-biphenyl-3-ylmethyl]-(4-methylamino-cyclohexyl)-amide hydrochloride] |  |  |  | EC50 ([1]; Daoy human cells, Table 3): < 0.05 µM; EC50 ([3]; Table 3): < 0.05 µM |
| CN[C@H]1CC[C@@H](N(Cc2cc(-c3ccnc(C(=O)O)c3)ccc2OC)C(=O)c2sc3c(F)ccc(F)c3c2Cl)CC1 [Compound R6, 4-(3-{[(3-Chloro-4,7-difluoro-benzo[b]thiophene-2-carbonyl)-(4-methylamino-cyclohexyl)-amino]-methyl}-4-methoxy-phenyl)-pyridine-2-carboxylic acid bis(trifluoroacetate)] |  | 0.05 to 0.25 µM | 0.05 to 0.25 µM |  |

Continued, in another order:

| EC50 [1, 4] | EC50 ([3]; Table 1) | SMILES | EC50 [2, 5] | also measured |
| --- | --- | --- | --- | --- |
| < 0.05 µM | < 0.05 µM | CNC(=O)c1cc(-c2ccc(OC)c(CN(C(=O)c3sc4c(F)ccc(F)c4c3Cl)[C@H]3CC[C@H](NC)CC3)c2)ccn1 [356 (R21), 4-(3-{([(3-Chloro-4,7-difluoro-benzo[b]thiophene-2-carbonyl)-(4-methylamino-cyclohexyl)-amino]-methyl}-4-methoxy-phenyl)-pyridine-2-carboxylic acid methylamidedihydrochloride] | < 0.05 µM |  |
| < 0.05 µM | < 0.05 µM | CN[C@H]1CC[C@@H](N(Cc2cc(-c3cccc(C#N)c3)ccc2OC)C(=O)c2sc3ccccc3c2Cl)CC1 [Compound 304, 3-Chloro-benzo[b]thiophene-2-carboxylic acid (3′-cyano-4-methoxy-biphenyl-3-ylmethyl)-(4-methylamino-cyclohexyl)-amide hydrochloride] | < 0.05 µM |  |
| < 0.05 µM | < 0.05 µM | CN[C@H]1CC[C@@H](N(Cc2cc(-c3ccc(OC(F)(F)F)cc3)ccc2OC)C(=O)c2sc3ccccc3c2Cl)CC1 [Compound 307, 3-Chloro-benzo[b]thiophene-2-carboxylic acid (4-methoxy-4′-trifluoromethoxy-biphenyl-3-ylmethyl)-(4-methylamino-cyclohexyl)-amide hydrochloride] |  |  |
| 0.05 to 0.25 µM |  | CCOc1ccc(-c2ccc(OC)cc2)cc1CN(C(=O)c1sc2ccccc2c1Cl)[C@H]1CC[C@@H](NC)CC1 [Compound 312, 3-Chloro-benzo[b]thiophene-2-carboxylic acid (4-ethoxy-4′-methoxy-biphenyl-3-ylmethyl)-(4-methylamino-cyclohexyl)-amide hydrochloride] |  |  |
| < 0.05 µM | 0.05 to 0.25 µM | CCOc1ccc(-c2ccccc2)cc1CN(C(=O)c1sc2ccccc2c1Cl)[C@H]1CC[C@@H](NC)CC1 [Compound 313, 3-Chloro-benzo[b]thiophene-2-carboxylic acid (4-ethoxy-biphenyl-3-ylmethyl)-(4-methylamino-cyclohexyl)-amide hydrochloride] |  |  |
| < 0.05 µM | 0.05 to 0.25 µM | CCOc1ccc(-c2cncnc2)cc1CN(C(=O)c1sc2ccccc2c1Cl)[C@H]1CC[C@@H](NC)CC1 [Compound 326, 3-Chloro-benzo[b]thiophene-2-carboxylic acid (2-ethoxy-5-pyrimidin-5-yl-benzyl)-(4-methylamino-cyclohexyl)-amide dihydrochloride] | 0.05 to 0.25 µM |  |
|  | < 0.05 µM | CN[C@H]1CC[C@@H](N(Cc2cc(-c3cccc(C#N)c3)ccc2OC)C(=O)c2sc3c(F)ccc(F)c3c2Cl)CC1 [Compound 337, 3-Chloro-4,7-difluoro-benzo[b]thiophene-2-carboxylic acid (3′-cyano-4-methoxy-biphenyl-3-ylmethyl)-(4-methylamino-cyclohexyl)-amide hydrochloride] | < 0.05 µM |  |
| < 0.05 µM | < 0.05 µM | CN[C@H]1CC[C@@H](N(Cc2cc(-c3ccc(CCl)cc3)ccc2OC)C(=O)c2sc3ccccc3c2Cl)CC1 [Compound 340, 3-Chloro-benzo[b]thiophene-2-carboxylic acid (4′-chloromethyl-4-methoxy-biphenyl-3-ylmethyl)-(4-methylamino-cyclohexyl)-amide hydrochloride] | < 0.05 µM |  |
|  | < 0.05 µM | CN[C@H]1CC[C@@H](N(Cc2cc(-c3ccc(C#N)cc3)ccc2OC)C(=O)c2sc3c(F)ccc(F)c3c2Cl)CC1 [Compound 351, 3-Chloro-4,7-difluoro-benzo[b]thiophene-2-carboxylic acid (4′-cyano-4-methoxy-biphenyl-3-ylmethyl)-(4-methylamino-cyclohexyl)-amide hydrochloride] | < 0.05 µM |  |
| < 0.05 µM | < 0.05 µM | CN[C@H]1CC[C@@H](N(Cc2cc(-c3cccc(C#N)c3)ccc2OC)C(=O)c2sc3cccc(F)c3c2Cl)CC1 [Compound 365, 3-Chloro-4-fluoro-benzo[b]thiophene-2-carboxylic acid (3′-cyano-4-methoxy-biphenyl-3-ylmethyl)-(4-methylamino-cyclohexyl)-amide hydrochloride] |  |  |
|  | < 0.05 µM | CN[C@H]1CC[C@@H](N(Cc2cc(-c3ccc(S(C)(=O)=O)cc3)ccc2OC)C(=O)c2sc3ccccc3c2Cl)CC1 [Compound R7, 3-Chloro-benzo[b]thiophene-2-carboxylic acid (4′-methanesulfonyl-4-methoxy-biphenyl-3-ylmethyl)-(4-methylamino-cyclohexyl)-amide hydrochloride] | < 0.05 µM |  |
